This note sets out measurements from patent US20250388605A1, “HETEROBIFUNCTIONAL COMPOUNDS AND METHODS OF TREATING DISEASE” (Halda Therapeutics OpCo, Inc., priority 2022, published 2025).

One assay addresses T1, BRD4-BD2 (Homo sapiens, UniProt O60885).
T1 construct: made in house; host or cells: T7 phage grown in an E. coli host derived from the BL21 strain
The assay is described as follows: Binding affinity to BRD4-BD2 (bromoKdELECT assay). The note with it: 11-point 3-fold dilution series.

The target of the next assay is T2, BRD4-BD1 (Homo sapiens, UniProt O60885).
T2 construct: made in house; host or cells: T7 phage grown in an E. coli host derived from the BL21 strain
As to the kind of experiment: Binding affinity to BRD4-BD1 (bromoKdELECT assay). The note with it: 11-point 3-fold dilution series.

Assay [1] concerns T-Rex 293 cell line SC cells lacking increased expression of progesterone receptor isoform B protein. The assay is described as follows: Cellular growth inhibition assay, T-Rex 293 SC cells not exposed to doxycycline (no increased progesterone receptor isoform B expression), CellTiter-Glo. The assay is classed as cell-based. The note with it: T-Rex 293 SC cells without doxycycline (no increased PR isoform B), 72 hours. Background: ATP-based viability assays read luminescence as a measure of living cells.

Regarding `Cn1cc(-c2cc(C(C)(C)O)ccc2Oc2ccc(CCC3CCN(c4ncc(C(=O)N[C@H]5C(C)(C)[C@H](Oc6ccc(C#N)c(Cl)c6)C5(C)C)cn4)CC3)cc2)c2cc[nH]c2c1=O` [Compound I-203], the Kd on BRD4-BD2 and on BRD4-BD1 was greater than 2500 nM each time. Also, in assay [1], the GI50 – broadly, the concentration giving 50% growth inhibition – is greater than 3000 nM.

For `CCS(=O)(=O)Nc1ccc(Oc2cccc(OCCN(C)c3ncc(C(=O)N[C@H]4C(C)(C)[C@H](Oc5ccc(C#N)c(Cl)c5)C4(C)C)cn3)c2)c(-c2cn(C)c(=O)c3[nH]ccc23)c1` [Compound I-1, N-((1r, 3r)-3-(3-chloro-4-cyanophenoxy)-2,2,4,4-tetramethylcyclobutyl)-2-((2-(3-(4-(ethylsulfonamido)-2-(6-methyl-7-oxo-6,7-dihydro-1H-pyrrolo[2,3-c]pyridin-4-yl)phenoxy)phenoxy)ethyl)(methyl)amino)pyrimidine-5-carboxamide], the dissociation constant (Kd) (in general, the concentration at which binding is half-saturated) is less than 50 nM at BRD4-BD2 and 50 to 500 nM at BRD4-BD1. This compound yielded a 50% growth inhibitory concentration (GI50) in assay [1] of less than 500 nM.

`CCS(=O)(=O)Nc1ccc(Oc2ccc(F)c(OCCOC3CCN(c4ncc(C(=O)N[C@H]5C(C)(C)[C@H](Oc6ccc(C#N)c(Cl)c6)C5(C)C)cn4)CC3)c2F)c(-c2cn(C)c(=O)c3[nH]ccc23)c1` [Compound I-65]: the Kd at BRD4-BD2 was less than 50 nM; on BRD4-BD1, 500 to 2500 nM. Further, the GI50 in assay [1] is less than 500 nM.

As to `CN(c1ccc(Oc2ccc(C(C)(C)O)cc2-c2cn(C)c(=O)c3[nH]ccc23)cc1)C1CCN(c2ncc(C(=O)N[C@H]3C(C)(C)[C@H](Oc4ccc(C#N)c(Cl)c4)C3(C)C)cn2)CC1` [Compound I-197], the figures for the Kd on BRD4-BD2 and at BRD4-BD1 were less than 50 nM and 50 to 500 nM, respectively. Also, the 50% growth inhibitory concentration (GI50) in assay [1] is less than 500 nM.

Regarding `CCS(=O)(=O)Nc1ccc(Oc2cccc(COC3CCN(c4ncc(C(=O)N[C@H]5C(C)(C)[C@H](Oc6ccc(C#N)c(Cl)c6)C5(C)C)cn4)CC3)c2)c(-c2cn(C)c(=O)c3[nH]ccc23)c1` [Compound I-18, N-((1r, 3r)-3-(3-chloro-4-cyanophenoxy)-2,2,4,4-tetramethylcyclobutyl)-2-(4-((3-(4-(ethylsulfonamido)-2-(6-methyl-7-oxo-6,7-dihydro-1H-pyrrolo[2,3-c]pyridin-4-yl)phenoxy)benzyl)oxy)piperidin-1-yl)pyrimidine-5-carboxamide], the figures for the dissociation constant Kd at BRD4-BD2 and at BRD4-BD1 were less than 50 nM and 500 to 2500 nM, respectively. The GI50 in assay [1] is less than 500 nM.

As to `CCS(=O)(=O)Nc1ccc(Oc2cccc(OCCOCCOCCOC3CCN(c4ncc(C(=O)N[C@H]5C(C)(C)[C@H](Oc6ccc(C#N)c(Cl)c6)C5(C)C)cn4)CC3)c2)c(-c2cn(C)c(=O)c3[nH]ccc23)c1` [Compound I-7], the dissociation constant Kd at BRD4-BD2 is less than 50 nM; at BRD4-BD1, 500 to 2500 nM. Also, in assay [1], the GI50 was less than 500 nM.

For the compound `CCS(=O)(=O)Nc1ccc(Oc2cccc(OCCOCCOCCOCCOCCN(C)c3ncc(C(=O)N[C@H]4C(C)(C)[C@H](Oc5ccc(C#N)c(Cl)c5)C4(C)C)cn3)c2)c(-c2cn(C)c(=O)c3[nH]ccc23)c1` [Compound I-3], the Kd on BRD4-BD2 and on BRD4-BD1 was less than 50 nM in each case. Further, the GI50 in assay [1] was 500 to 1500 nM.
